Key:
[1] = target: T1, c-Met (Homo sapiens, UniProt P08581); experiment: c-Met autophosphorylation inhibitory activity (general statement)
Target sequence in this assay (P08581 25-1390): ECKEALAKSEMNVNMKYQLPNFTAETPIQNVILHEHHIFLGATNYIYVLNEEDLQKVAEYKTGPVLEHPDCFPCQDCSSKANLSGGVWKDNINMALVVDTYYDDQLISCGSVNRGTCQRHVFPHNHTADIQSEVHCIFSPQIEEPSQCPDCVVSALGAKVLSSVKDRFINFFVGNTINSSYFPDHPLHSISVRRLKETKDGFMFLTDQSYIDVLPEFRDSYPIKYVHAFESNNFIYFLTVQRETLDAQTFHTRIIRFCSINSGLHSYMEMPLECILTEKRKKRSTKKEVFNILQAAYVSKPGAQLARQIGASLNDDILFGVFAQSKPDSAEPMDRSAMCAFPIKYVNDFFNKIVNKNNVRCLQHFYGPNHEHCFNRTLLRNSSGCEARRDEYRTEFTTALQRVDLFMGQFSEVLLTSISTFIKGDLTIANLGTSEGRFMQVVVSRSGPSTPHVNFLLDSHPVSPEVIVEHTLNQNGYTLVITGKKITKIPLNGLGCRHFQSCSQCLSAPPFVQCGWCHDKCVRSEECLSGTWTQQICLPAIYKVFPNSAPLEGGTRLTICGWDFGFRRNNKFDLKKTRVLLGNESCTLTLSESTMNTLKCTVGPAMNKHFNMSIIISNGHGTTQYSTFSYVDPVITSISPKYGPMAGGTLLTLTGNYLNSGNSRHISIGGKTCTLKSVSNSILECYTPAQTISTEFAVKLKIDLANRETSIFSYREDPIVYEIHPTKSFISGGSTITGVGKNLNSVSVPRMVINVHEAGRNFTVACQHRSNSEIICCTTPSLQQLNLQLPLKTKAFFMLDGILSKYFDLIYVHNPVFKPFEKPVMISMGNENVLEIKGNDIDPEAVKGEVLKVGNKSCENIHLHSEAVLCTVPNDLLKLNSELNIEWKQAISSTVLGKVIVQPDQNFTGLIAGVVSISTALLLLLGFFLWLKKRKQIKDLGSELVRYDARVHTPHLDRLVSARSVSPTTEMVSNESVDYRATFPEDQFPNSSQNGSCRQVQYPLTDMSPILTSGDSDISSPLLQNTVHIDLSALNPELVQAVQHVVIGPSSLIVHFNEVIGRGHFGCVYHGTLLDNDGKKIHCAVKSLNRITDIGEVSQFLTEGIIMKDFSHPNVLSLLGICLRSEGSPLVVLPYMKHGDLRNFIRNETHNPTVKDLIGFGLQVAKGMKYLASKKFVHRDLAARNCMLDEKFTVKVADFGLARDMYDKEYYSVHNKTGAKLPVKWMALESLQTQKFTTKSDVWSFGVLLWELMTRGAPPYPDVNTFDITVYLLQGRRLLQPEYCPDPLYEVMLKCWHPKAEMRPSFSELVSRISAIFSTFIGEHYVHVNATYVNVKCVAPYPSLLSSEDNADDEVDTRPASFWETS

[2] = Human liver microsome test; assay type: in vitro ADME; settings: data not shown
[3] = target: T1, c-Met; experiment: c-Met autophosphorylation inhibition in culture cells MKN45 (immunoprecipitation/blot); assay type: cell-based; parameters: endogenous in cells; host or cells: MKN45
Text: (§1) MKN45 (human poorly differentiated gastric cancer cell line, Riken) and A431 (human epithelioid cancer cell line, JCRB) were used for the measurement of c-Met autophosphorylation inhibition, and HUVEC (human vascular endothelial cells, KURABO INDUSTRIES LTD.) was used for the measurement of KDR autophosphorylation inhibitory activity.
(§2) MKN45 (2.5×10^5/well) or A431 (8.5×10^5/well) was inoculated into wells, containing RPMI (GIBCO) containing 0.1% fetal calf serum (JRH Biosciences), in a 6-well plate (Collagen Type I coated Plate, 4810-010, IWAKI), and, 24 hr after the inoculation, the medium was replaced with an RPMI medium containing 0.10% fetal calf serum. Thereafter, compound A was added, followed by incubation for 90 min under conditions of 37° C. and 5% CO2. The culture was removed without stimulation for MKN45 and after stimulation for 10 min with 50 ng/ml HGF (294-HG, R&D SYSTEMS) for A431. A solubilizing buffer solution (20 mM HEPES (pH 7.4), 150 mM NaCl, 0.2% TritonX-100, […], 5 mM sodium orthovanadylate, 5 mM disodium ethylenediaminetetraacetate, and 2 mM Na4P2O7) (500 μl/well) was added to satisfactorily solubilize the cells. […] The film was quantified by Scion Image, and the IC50 value was determined with an analysis software Graph Pad Prism Ver.4 (Graph Pad Software, Inc.).
Target sequence in this assay (P08581 25-1390): as above

[4] = target: T1, c-Met; experiment: c-Met autophosphorylation inhibition in culture cells A431, HGF stimulated (immunoprecipitation/blot); assay type: cell-based; parameters: endogenous in cells; settings: 50 ng/ml HGF
Text: as §1, §2
Target sequence in this assay (P08581 25-1390): as above

[5] = target: T2, KDR (Homo sapiens, UniProt P35968); experiment: KDR autophosphorylation inhibition in HUVEC, VEGF stimulated; assay type: cell-based; parameters: endogenous in cells; host or cells: HUVEC; settings: 50 ng/ml VEGF
Text: as §1
Target sequence in this assay (P35968 20-1356): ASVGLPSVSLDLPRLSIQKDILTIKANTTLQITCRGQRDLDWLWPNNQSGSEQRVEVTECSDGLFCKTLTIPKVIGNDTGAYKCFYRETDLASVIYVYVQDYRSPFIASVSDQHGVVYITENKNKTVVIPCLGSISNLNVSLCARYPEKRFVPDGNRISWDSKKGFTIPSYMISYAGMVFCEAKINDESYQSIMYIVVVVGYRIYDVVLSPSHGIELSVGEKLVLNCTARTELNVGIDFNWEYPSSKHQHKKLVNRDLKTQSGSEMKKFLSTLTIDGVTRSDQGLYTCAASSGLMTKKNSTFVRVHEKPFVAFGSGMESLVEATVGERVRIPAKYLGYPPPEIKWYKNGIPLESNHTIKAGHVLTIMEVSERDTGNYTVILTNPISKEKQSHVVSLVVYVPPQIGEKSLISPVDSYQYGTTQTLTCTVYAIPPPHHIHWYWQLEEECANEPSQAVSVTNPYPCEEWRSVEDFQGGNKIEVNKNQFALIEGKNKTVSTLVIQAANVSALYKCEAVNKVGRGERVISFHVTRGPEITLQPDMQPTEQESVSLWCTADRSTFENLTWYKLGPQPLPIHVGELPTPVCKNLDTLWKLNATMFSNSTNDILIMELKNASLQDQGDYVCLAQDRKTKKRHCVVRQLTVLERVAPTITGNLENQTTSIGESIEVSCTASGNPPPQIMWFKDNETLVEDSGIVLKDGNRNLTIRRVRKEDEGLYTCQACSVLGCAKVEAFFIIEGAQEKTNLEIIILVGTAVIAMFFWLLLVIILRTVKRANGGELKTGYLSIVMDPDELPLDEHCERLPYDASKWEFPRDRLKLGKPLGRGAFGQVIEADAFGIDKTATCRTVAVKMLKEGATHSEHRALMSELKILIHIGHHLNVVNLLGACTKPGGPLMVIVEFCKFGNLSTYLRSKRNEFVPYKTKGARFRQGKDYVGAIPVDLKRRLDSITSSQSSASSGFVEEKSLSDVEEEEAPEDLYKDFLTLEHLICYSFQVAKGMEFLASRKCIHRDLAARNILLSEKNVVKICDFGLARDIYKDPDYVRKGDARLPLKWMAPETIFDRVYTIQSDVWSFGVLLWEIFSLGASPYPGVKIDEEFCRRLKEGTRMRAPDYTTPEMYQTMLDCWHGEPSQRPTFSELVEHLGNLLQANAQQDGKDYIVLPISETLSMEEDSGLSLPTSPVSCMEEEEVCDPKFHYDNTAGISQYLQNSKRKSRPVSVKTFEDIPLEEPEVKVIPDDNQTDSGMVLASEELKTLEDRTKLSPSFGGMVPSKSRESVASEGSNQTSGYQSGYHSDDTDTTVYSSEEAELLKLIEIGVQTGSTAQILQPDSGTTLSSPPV
HUVEC was inoculated into an EGM medium (KURABO INDUSTRIES LTD.) so that the number of cells was 2×10^6/100-mm Petri dish (Collagen coated Dish, 4020-010, IWAKI), and, 24 hr after the inoculation, the EGM medium was replace with an EBM medium containing 0.5% fetal calf serum (KURABO INDUSTRIES LTD.). Compound A was added, and the mixture was incubated for 90 min. After stimulation with 50 ng/ml of VEGF (100-20, PeproTech, Inc.) for 5 min, the culture was removed. The residue was subjected to immunoprecipitation with a KDR antibody (Flk-1, C-1158, Santa Cruz) by the above c-Met autophosphorylation inhibitory activity measuring method, followed by SDS-PAGE to measure KDR autophosphorylation inhibitory activity.

[6] = target: T2, KDR; experiment: KDR enzyme inhibitory activity (32P-ATP, SDS-PAGE); assay type: biochemical; parameters: The KDR protein (812-1346AA) was prepared from SF21 insect cells; made in house; host or cells: SF21 insect cells (Bac to Bac baculovirus system)
Protocol: (§3) c-Met protein (upstate, Lot: 25735AU, catalog code 14-526) was diluted with EDB (20 mM MOPS (pH 7.0), 1 mM EDTA, 0.01% Brij 35, 5% glycerol, 0.1% β-mercaptoethanol, and 1 mg/ml BSA) to 10 ng/μl. The KDR protein (812-1346AA) was prepared from SF21 insect cells (affinity purification, 12.4 μg/μl) according to the protocol of Invitrogen (Bac to Bac (tradename) baculovirus expression system) and was diluted with EDB to 248 ng/μl. A five-fold concentration of a reaction buffer (40 mM MOPS (pH 7.4), 1 mM EDTA) (5 μl), a ten-fold concentration of compound A (5 μl), 250 mM MnCl2 (2.5 μl), sterilized distilled water (2.5 μl), c-Met protein or KDR protein (5 μl) was mixed thereinto under ice cooling. An ATP reaction solution (25 mM ATP, 10 μci/μl γ-^32P-ATP (1 μl), 25 mM Mg (OAc)2, and 1.25 mM Hepes (pH7.4)) (10 μl) was added, and the mixture was allowed to react at 37° C. for 10 min. A tris-SDS β-ME sample treatment liquid (301780, Daiichi Kagaku Inc.) (10 μl) was added to stop the reaction. The reaction solution was boiled at 95° C. for 5 min and was then subjected to SDS-PAGE. The gel after the migration was packed, and an imaging plate (Fuji Film) was applied to the gel for transfer, followed by analysis with Typhoon (Amersham Biosciences). The IC50 value was calculated with a software for analysis Graph Pad Prism Ver.4 (Graph Pad Software, Inc.).
Target sequence in this assay (P35968 812-1346): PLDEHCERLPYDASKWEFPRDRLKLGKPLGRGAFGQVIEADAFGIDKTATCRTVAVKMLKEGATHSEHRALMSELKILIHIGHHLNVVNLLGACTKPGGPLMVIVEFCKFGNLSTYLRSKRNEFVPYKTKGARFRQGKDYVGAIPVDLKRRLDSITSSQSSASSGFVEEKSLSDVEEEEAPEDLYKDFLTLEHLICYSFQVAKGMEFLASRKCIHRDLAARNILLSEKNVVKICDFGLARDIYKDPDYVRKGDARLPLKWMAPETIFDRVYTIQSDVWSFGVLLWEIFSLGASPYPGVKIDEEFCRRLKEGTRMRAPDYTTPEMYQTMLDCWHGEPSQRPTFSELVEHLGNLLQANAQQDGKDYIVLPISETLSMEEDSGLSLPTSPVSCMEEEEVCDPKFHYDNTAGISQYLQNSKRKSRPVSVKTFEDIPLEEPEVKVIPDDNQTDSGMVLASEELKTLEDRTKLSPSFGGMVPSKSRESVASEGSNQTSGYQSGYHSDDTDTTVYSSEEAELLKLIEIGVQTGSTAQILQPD

[7] = test system: Human gastric cancer cell line NU-GC-4; experiment: Tumor growth inhibitory activity against human gastric cancer cell line NU-GC-4 in nude mice; assay type: in vivo; settings: 25 mg/kg oral once a day, 10th day
Protocol: Human gastric cancer cell line NU-GC-4 (available from Cell Resource Center for Biomedical Research, Institute of Development Aging and Cancer, Tohoku University) is transplanted into nude mice. When the tumor volume becomes about 100 mm^3, the mice are grouped so that the groups each consist of four mice and have an even average tumor volume. The test compound suspended in 0.5% methylcellulose is orally administered once a day for 9 days.
Only 0.5% methylcellulose is administered to the control group in the same manner as in the test groups. The tumor growth inhibition rate (TGIR) is calculated as follows: The tumor growth inhibition rate (TGIR)=(1−TX/CX)×100 wherein CX represents the volume of tumor at day X for the control group and TX represents the volume of tumor for test compound administration groups, when the tumor volume at the day of the start of the administration is presumed to be 1.

[8] = target: T2, KDR; experiment: KDR autophosphorylation inhibitory activity (general statement)
Target sequence in this assay (P35968 20-1356): as the sequence (P35968 20-1356) above

[9] = test system: mouse lower limb bone growth plate; experiment: Influence on mouse lower limb bone growth plate; assay type: in vivo; settings: nude mice, 50 mg/kg oral once a day for 4 weeks
Protocol: Nude mice (BALB-nu/nu, female, four weeks old, Charles River Japan, Inc.) were preliminarily raised for one week, and the mice were grouped so that each group consisted of 8 mice. Compound A (50 mg/kg) suspended in 0.5% methylcellulose was orally administered once a day for 4 weeks to the compound A group. On the other hand, 0.5% methylcellulose was administered to the control group in the same manner as in the compound A group.
On the 29th day after the initiation of the administration, the animals were killed from ether anesthesia. A lower limb bone around the knee region was removed, was fixed in buffer formalin, was deashed and was then subjected to paraffin embedding. A thin sliced sample was dyed with HE, and the knee bone was photographed, and whether or not thickening of the bone growth plate occurs was quantitatively determined with an image analysis software (WinROOF Ver5, MITANI CORPORATION).

[10] = target: T1, c-Met; experiment: c-Met enzyme inhibitory activity (32P-ATP, SDS-PAGE); assay type: biochemical; parameters: purchased upstate 14-526
Protocol: as §3
Target sequence in this assay (P08581 974-1390 limits assumed): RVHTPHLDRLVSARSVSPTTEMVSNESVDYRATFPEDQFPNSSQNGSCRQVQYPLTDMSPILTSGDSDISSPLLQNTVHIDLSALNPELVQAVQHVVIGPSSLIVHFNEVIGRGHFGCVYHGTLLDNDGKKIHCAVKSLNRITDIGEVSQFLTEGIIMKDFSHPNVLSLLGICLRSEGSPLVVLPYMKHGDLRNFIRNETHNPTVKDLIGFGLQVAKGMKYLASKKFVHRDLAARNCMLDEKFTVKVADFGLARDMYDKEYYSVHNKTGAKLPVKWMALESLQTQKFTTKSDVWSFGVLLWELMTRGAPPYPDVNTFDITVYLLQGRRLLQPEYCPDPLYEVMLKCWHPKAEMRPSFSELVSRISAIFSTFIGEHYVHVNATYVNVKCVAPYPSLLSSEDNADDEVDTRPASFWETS

c-Met autophosphorylation inhibitory activity [1]: high
metabolic rate [2]: proper metabolic rate
IC50 ([3]; c-Met (MKN45), without stimulation): 11.3 nM
c-Met/KDR selectivity ([3]; c-Met versus KDR autophosphorylation in culture cells): high
IC50 [4]: 9.3 nM
IC50 [5]: ≥ 1000 nM
IC50 [6]: ≥ 1000 nM
KDR autophosphorylation inhibitory activity [8]: low
bone growth plate area ([9]; versus control group): no significant difference
IC50 [10]: 15.5 nM
Compound: COc1cc(Oc2ccnc3cc(OC)c(OC)cc23)ccc1NC(=S)NC(=O)Cc1ccc(F)cc1 [Compound A, N-[4-{(6,7-dimethoxy-4-quinolyl)oxy}-2-methoxyphenyl]-N′-[2-(4-fluorophenyl)acetyl]thiourea]
TGIR (tumor growth inhibition rate) [7]: 78%
thickening of the bone growth plate [9]: did not induce the thickening of the bone growth plate
